Measurements: patent publication US20230106032A1, “IMIDAZOTRIAZINES ACTING ON CANCER VIA INHIBITION OF CDK12” (Bayer Aktiengesellschaft, priority 2020, published 2023)

Tests used:
CDK9/CycT1 = molecular target: T1, CDK9/CycT1 (Homo sapiens, UniProt P50750); assay: CDK9/CycT1 high ATP kinase assay (TR-FRET, 2 mM ATP); assay type: biochemical; conditions: read-out: CDK9/CyclinT1, 2 mM ATP (high ATP) IC50-[mol/l] (median)
T1 construct: Recombinant full-length His-tagged human CDK9 and CycT1, expressed in insect cells; His; purchased Life Technologies PV4131; host or cells: insect cells
T1 sequence (P50750 whole entry): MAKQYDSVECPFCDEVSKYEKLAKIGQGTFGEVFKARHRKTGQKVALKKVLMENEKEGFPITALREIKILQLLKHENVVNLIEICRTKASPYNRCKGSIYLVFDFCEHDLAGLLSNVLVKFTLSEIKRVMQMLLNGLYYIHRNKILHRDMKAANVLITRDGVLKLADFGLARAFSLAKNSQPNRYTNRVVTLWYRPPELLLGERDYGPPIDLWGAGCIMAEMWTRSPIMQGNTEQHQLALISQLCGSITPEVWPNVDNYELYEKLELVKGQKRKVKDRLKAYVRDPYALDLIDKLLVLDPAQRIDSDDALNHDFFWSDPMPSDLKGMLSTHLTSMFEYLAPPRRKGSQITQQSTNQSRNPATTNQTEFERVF
T1 sequence (O60563 whole entry partner): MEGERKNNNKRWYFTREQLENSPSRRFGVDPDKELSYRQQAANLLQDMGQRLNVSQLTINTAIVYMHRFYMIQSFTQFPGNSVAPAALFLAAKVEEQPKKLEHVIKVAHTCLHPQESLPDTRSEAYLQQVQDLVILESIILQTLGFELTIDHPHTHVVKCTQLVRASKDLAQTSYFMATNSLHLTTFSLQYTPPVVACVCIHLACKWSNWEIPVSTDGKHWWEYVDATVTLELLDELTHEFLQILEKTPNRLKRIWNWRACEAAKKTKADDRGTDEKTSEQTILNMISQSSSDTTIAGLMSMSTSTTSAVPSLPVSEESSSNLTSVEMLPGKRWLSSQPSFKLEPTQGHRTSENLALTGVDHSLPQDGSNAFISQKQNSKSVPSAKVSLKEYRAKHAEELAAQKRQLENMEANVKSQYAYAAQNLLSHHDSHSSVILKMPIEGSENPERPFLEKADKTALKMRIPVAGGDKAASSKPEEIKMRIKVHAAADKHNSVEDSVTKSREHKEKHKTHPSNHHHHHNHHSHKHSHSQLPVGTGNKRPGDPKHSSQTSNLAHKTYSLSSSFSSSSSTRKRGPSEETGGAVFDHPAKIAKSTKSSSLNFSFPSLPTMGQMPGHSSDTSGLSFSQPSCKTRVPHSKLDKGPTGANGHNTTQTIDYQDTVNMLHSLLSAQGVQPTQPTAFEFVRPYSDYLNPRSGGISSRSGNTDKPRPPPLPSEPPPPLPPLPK
Description: CDK9/CycT1-inhibitory activity of compounds of the present invention at a high ATP concentration after preincubation of enzyme and test compounds was quantified employing the CDK9/CycT1 TR-FRET assay as described in the following paragraphs.
Recombinant full-length His-tagged human CDK9 and CycT1, expressed in insect cells and purified by Ni-NTA affinity chromatography, were purchased from Life Technologies (Cat. No PV4131). As substrate for the kinase reaction biotinylated peptide biotin-Ttds-YISPLKSPYKISEG (C-terminus in amide form) was used which can be purchased e.g. form the company JERINI peptide technologies (Berlin, Germany).
For the assay 50 nanoL of a 100 fold concentrated solution of the test compound in DMSO was pipetted into either a black low volume 384 well microtiter plate or a black 1536 well microtiter plate (both Greiner Bio-One, Frickenhausen, Germany), 2 microL of a solution of CDK9/CycT1 in aqueous assay buffer [50 millimol/L Tris/HCl pH 8.0, 10 millimol/L MgCl2, 1.0 millimol/L dithiothreitol, 0.1 millimol/L sodium ortho-vanadate, 0.01% (v/v) Nonidet-P40 (Sigma)] were added and the mixture was incubated for 15 min at 22° C. to allow pre-binding of the test compounds to the enzyme before the start of the kinase reaction. Then the kinase reaction was started by the addition of 3 microL of a solution of adenosine-tri-phosphate (ATP, 3.3 millimol/L=> final conc. in the 5 microL assay volume is 2 millimol/L) and substrate (1.25 micromol/L=> final conc. in the 5 microL assay volume is 0.75 micromol/L) in assay buffer and the resulting mixture was incubated for a reaction time of 25 min at 22° C. The concentration of CDK9/CycT1 was adjusted depending of the activity of the enzyme lot and was chosen appropriate to have the assay in the linear range, typical concentrations were in the range of 0.5 microg/ml. The reaction was stopped by the addition of 3 microL of a solution of TR-FRET detection reagents (0.33 micromol/L streptavidine-XL665 [Cisbio Bioassays, Codolet, France] and 1.67 nanomol/L anti-RB(pSer807/pSer8l 1)-antibody from BD Pharmingen [#558389] and 2 nanomol/L LANCE EU-W1024 labeled anti-mouse IgG antibody [Perkin-Elmer, product no. AD0077]) in an aqueous EDTA-solution (167 millimol/L EDTA, 0.2% (w/v) bovine serum albumin in 100 millimol/L HEPES pH 7.5).
The resulting mixture was incubated 1 h at 22° C. to allow the formation of complex between the phosphorylated biotinylated peptide and the detection reagents. Subsequently the amount of phosphorylated substrate was evaluated by measurement of the resonance energy transfer from the Eu-chelate to the streptavidine-XL. Therefore, the fluorescence emissions at 620 nm and 665 nm after excitation at 350 nm was measured in a TR-FRET reader, e.g. a Pherastar (BMG Labtechnologies, Offenburg, Germany) or a Viewlux (Perkin-Elmer). The ratio of the emissions at 665 nm and at […] was taken as the measure for the amount of phosphorylated substrate. The data were normalised (enzyme reaction without inhibitor=0% inhibition, all other assay components but no enzyme=100% inhibition).

[1] = system: CAL-120 human breast adenocarcinoma cells; assay: Proliferation assay CAL-120 (crystal violet); assay type: cell-based; conditions: 96 h, CAL-120 cells, 4 days, read-out: Prolif-CAL-120_ IC50-[mol/l] (median)
Description: Human tumour cells were originally obtained from the American Type Culture Collection (ATCC), or from the Deutsche Sammlung von Mikroorganismen und Zellkulturen (DSMZ, German Collection of Microorganisms and Cell Cultures). Cultivated tumour cells (CAL-120, human breast adenocarcinoma cells, DSMZ ACC-459; MDA-MB-231, human breast cancer cells, ATCC HTB-26) were plated at a density of 4,000 cells/well in a 96-well multititer plate in 200 microL of their respective growth medium supplemented 10% fetal calf serum. After 24 hours, the cells of one plate (zero-point plate) were stained with crystal violet (see below), while the medium of the other plates was supplemented with the test substances in various concentrations (0 micromol/L, as well as in the range of 0.01-10 micromol/L; the final concentration of the solvent dimethyl sulfoxide was adjusted to 0.1%) using a Tecan HP D300 Digital Dispenser. The cells were incubated for 4 days in the presence of test substances. Cell proliferation was determined by staining the cells with crystal violet: the cells were fixed by adding 20 microL/measuring point of an 11% glutaric aldehyde solution for 15 minutes at room temperature. After three washing cycles of the fixed cells with water, the plates were dried at room temperature. The cells were stained by adding 100 microL/measuring point of a 0.1% crystal violet solution (pH 3.0). After three washing cycles of the stained cells with water, the plates were dried at room temperature. The dye was dissolved by adding 100 microL/measuring point of a 10% acetic acid solution. The extinction was determined by photometry at a wavelength of 595 nm. The change of cell number, in percent, was calculated by normalization of the measured values to the extinction values of the zero-point plate (=0%) and the extinction of the untreated (0 μM) cells (=100%). The IC50 values (inhibitory concentration at 50% of maximal effect) were determined by means of a 4 parameter fit.

SMILES | IC50 (CDK9/CycT1) [nM] | IC50 [1] [nM]
CN1CCN(c2nc(NCc3nc4c(F)c(F)ccc4[nH]3)c3ncc(C(F)(F)F)n3n2)CC1 [Example 28, N-[(4,5-difluoro-1H-benzimidazol-2-yl)methyl]-2-(4-methylpiperazin-1-yl)-7-(trifluoromethyl)imidazo[2,1-f][1,2,4]triazin-4-amine] | > 20000 | 1.99
C[C@@H]1CN(c2nc(NCc3nc4c(F)c(F)ccc4[nH]3)c3ncc(C(F)(F)F)n3n2)C[C@H](C)N1 [Example 29, N-[(4,5-difluoro-1H-benzimidazol-2-yl)methyl]-2-[rel-(3R,5S)-3,5-dimethylpiperazin-1-yl]-7-(trifluoromethyl)imidazo[2,1-f][1,2,4]triazin-4-amine] | 4620 | 0.536
CN(CC(C)(C)O)c1nc(NCc2nc3ccccc3[nH]2)c2ncc(C(F)(F)F)n2n1 [Example 30, 1-[{4-[(1H-benzimidazol-2-ylmethyl)amino]-7-(trifluoromethyl)imidazo[2,1-f][1,2,4]triazin-2-yl}(methyl)amino]-2-methylpropan-2-ol] | 10800 | 9.95

Now from value to compound:

IC50 (CDK9/CycT1) [nM] | IC50 [1] [nM] | SMILES
> 20000 | 7.11 | FC(F)(F)c1cnc2c(NCc3nc4ccccc4[nH]3)nc(N3CCOCC3)nn12 [Example 26, N-[(1H-benzimidazol-2-yl)methyl]-2-(morpholin-4-yl)-7-(trifluoromethyl)imidazo[2,1-f][1,2,4]triazin-4-amine]
6740 | 2.01 | Fc1ccc2[nH]c(CNc3nc(N4CCOCC4)nn4c(C(F)(F)F)cnc34)nc2c1F [Example 27, N-[(4,5-difluoro-1H-benzimidazol-2-yl)methyl]-2-(morpholin-4-yl)-7-(trifluoromethyl)imidazo[2,1-f][1,2,4]triazin-4-amine]
